# Results published in US20020019527A1 (priority 2000, published 2002).
# Structures can show the parent of a compound that is named as a salt.
# Target: T1, Farnesyltransferase (FTase) (Bos taurus, UniProt P29702+P49355)
# T1 construct: precipitation from a beef brain homogenate; from tissue; host or cells: bovine brain
# Assay: Farnesyltransferase inhibition (scintillation proximity assay, [3H]-FPP / biotin-K-ras peptide)
# Assay type: biochemical, bovine
# Conditions: not given
# Procedure: Farnesyltransferase (FTase) or geranylgeranyltransferase I (GGTase I) fractions were isolated from bovine brains and purified by a series of methods which separate FTase from GGTase I and GGTase I from GGTase II. The methods involved a partial purification of all three enzymes by precipitation from a beef brain homogenate with 30% to 50% saturated […] followed by chromatography on DEAE Sepharose. […] The catalytic purity of each enzyme was assayed separately with substrate acceptor proteins specific for that enzyme. After quickly freezing in liquid nitrogen, the various prenyl transferases were stored at −80° C.
# The quenched reactions stood for 1 hour before analysis in a Packard TopCount scintillation counter. Purified compounds were dissolved in 100% ethanol and diluted 10-fold into the assay.
# T1 sequence (P49355 whole entry, one chain of several): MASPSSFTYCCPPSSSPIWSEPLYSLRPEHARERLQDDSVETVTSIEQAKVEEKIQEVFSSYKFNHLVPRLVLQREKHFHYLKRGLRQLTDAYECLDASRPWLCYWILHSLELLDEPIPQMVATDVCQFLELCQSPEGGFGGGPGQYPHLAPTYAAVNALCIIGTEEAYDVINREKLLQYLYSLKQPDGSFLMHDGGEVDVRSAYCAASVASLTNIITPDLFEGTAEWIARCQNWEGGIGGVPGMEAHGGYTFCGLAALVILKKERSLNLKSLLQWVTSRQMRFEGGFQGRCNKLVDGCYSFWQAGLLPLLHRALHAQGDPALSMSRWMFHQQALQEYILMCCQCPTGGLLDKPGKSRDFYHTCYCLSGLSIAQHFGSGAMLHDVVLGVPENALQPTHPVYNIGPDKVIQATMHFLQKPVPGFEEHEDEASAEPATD
row,Compound,% Inhibition at 10^−6M [%]
1,Cc1ccccc1-c1cc(C(NCc2ccc([N+](=O)[O-])cc2)c2cncn2C)ccc1C#N (centres unmarked) [Example 12],100
2,Cc1ccccc1-c1cc(C(c2cncn2C)N2CCN(c3cccc(OC(F)(F)F)c3)C(=O)C2)ccc1C#N.Cl.Cl (centres unmarked) [Example 15],100

# Same assay, conditions: compound at 10^−6 M; bovine FTase, 37° C., 30 minutes
Compound,inhibition at 1 µM [%],% Inhibition at 10^−6M [%]
"Cc1ccccc1-c1cc(C(Oc2ccccc2)c2cncn2C)ccc1C#N (centres unmarked) [Example 4, 2′-methyl-5-((1-methyl-1H-imidazol-5-yl)(phenoxy)methyl)(1,1′-biphenyl)-2-carbonitrile hydrochloride]",88,–
"COc1ccccc1-c1cc(C(OCc2ccccc2)c2cncn2C)ccc1C#N (centres unmarked) [Example 5, 5-((benzyloxy)(1-methyl-1H-imidazol-5-yl)methyl)-2′-methoxy(1,1′-biphenyl)-2-carbonitrile hydrochloride]",91,–
"Cn1cncc1C(OCc1ccccc1)c1ccc(C#N)c(-c2cccc(-c3ccccc3)c2)c1 (centres unmarked) [Example 6, 5-((benzyloxy)(1-methyl-1H-imidazol-5-yl)methyl)-3′-(phenyl)(1,1′-biphenyl)-2-carbonitrile hydrochloride]",61,–
Cl.Cn1cncc1C(OCc1ccccc1)c1ccc(C#N)c(-c2c3ccccc3cc3ccccc23)c1 (centres unmarked) [Example 7],–,92
"CC(C)c1ccccc1-c1cc(C(OCc2ccccc2)c2cncn2C)ccc1C#N (centres unmarked) [Example 8, 5-((benzyloxy)(1-methyl-1H-imidazol-5-yl)methyl)-2′-isopropyl(1,1′-biphenyl)-2-carbonitrile hydrochloride]",100,–
"Cn1cncc1C(OCc1ccccc1)c1ccc(C#N)c(-c2ccc3c4c(cccc24)CC3)c1 (centres unmarked) [Example 9, 4-((benzyloxy)(1-methyl-1H-imidazol-5-yl)methyl)-2-(1,2-dihydro-5-acenaphthylenyl)benzonitrile hydrochloride]",64,–
"Cn1cncc1C(OCc1ccccc1)c1ccc(C#N)c(-c2ccccc2Cl)c1 (centres unmarked) [Example 10, 5-((benzyloxy)(1-methyl-1H-imidazol-5-yl)methyl)-2′-chloro(1,1′-biphenyl)-2-carbonitrile hydrochloride]",94,–
"Cc1ccccc1-c1cc(C(OCc2ccccc2)c2cncn2C)ccc1C#N (centres unmarked) [Example 11, 5-((benzyloxy)(1-methyl-1H-imidazol-5-yl)methyl)-2′-methyl(1,1′-biphenyl)-2-carbonitrile hydrochloride]",94,–
"Cn1cncc1C(NCc1ccc(C#N)cc1)c1ccc(C#N)c(-c2cccc3ccccc23)c1 (centres unmarked) [Example 13, 4-(((4-cyanobenzyl)amino)(1-methyl-1H-imidazol-5-yl)methyl)-2-(1-naphthyl)benzonitrile dihydrochloride]",100,–
"Cn1cncc1C(OCC1CCCCC1)c1ccc(C#N)c(-c2cccc3ccccc23)c1 (centres unmarked) [Example 14, 4-((cyclohexylmethoxy)(1-methyl-1H-imidazol-5-yl)methyl)-2-(1-naphthyl)benzonitrile hydrochloride]",100,–
"Cc1ccccc1-c1cc(C(NC2CCN(C(=O)c3ccccc3)CC2)c2cncn2C)ccc1C#N (centres unmarked) [Example 16, 5-(((1-benzoyl-4-piperidinyl)amino)(1-methyl-1H-imidazol-5-yl)methyl)-2′-methyl(1,1′-biphenyl)-2-carbonitrile dihydrochloride]",100,–
Cl.Cl.Cn1cncc1C(NCc1ccc(S(C)(=O)=O)cc1)c1ccc(C#N)c(-c2cccc3ccccc23)c1 (centres unmarked) [Example 17],–,100
"Cn1cncc1C(OCc1ccc(C#N)cc1)c1ccc(C#N)c(-c2cccc3cccnc23)c1 (centres unmarked) [Example 18, 4-(((4-cyanobenzyl)oxy)(1-methyl-1H-imidazol-5-yl)methyl)-2-(8-quinolinyl)benzonitrile dihydrochloride]",100,–
"Cn1cncc1C(OCc1ccc(C#N)cc1)c1ccc(C#N)c(-c2ccnc3ccccc23)c1 (centres unmarked) [Example 19, 4-(((4-cyanobenzyl)oxy)(1-methyl-1H-imidazol-5-yl)methyl)-2-(4-quinolinyl)benzonitrile dihydrochloride]",100,–
"Cc1ccccc1-c1cc(C(NCc2ccccc2)c2cncn2C)ccc1C#N (centres unmarked) [Example 23, 5-((benzylamino)(1-methy-1H-imidazol-5-yl)methyl)-2′-methyl(1,1′-biphenyl)-2-carbonitrile]",–,100
"Cc1ccccc1-c1cc(C(NCC2CCCCC2)c2cncn2C)ccc1C#N (centres unmarked) [Example 24, 5-(((cyclohexylmethyl)amino)(1-methyl-1H-imidazol-5-yl)methyl)-2′-methyl(1,1′-biphenyl)-2-carbonitrile]",100,–
"Cc1ccccc1-c1cc(C(NCc2ccc(C#N)cc2)c2cncn2C)ccc1C#N (centres unmarked) [Example 25, 5-(((4-cyanobenzyl)amino)(1-methyl-1H-imidazol-5-yl)methyl)-2′-methyl(1,1′-biphenyl)-2-carbonitrile]",100,–

Compound,inhibition at 1 µM [%],% Inhibition at 10^−6M [%]
Cc1ccccc1-c1cc(CNC(c2ccc(C#N)c(-c3ccccc3C)c2)c2cncn2C)ccc1C#N (centres unmarked) [Example 26],–,100
"CCN(Cc1ccc([N+](=O)[O-])cc1)C(c1ccc(C#N)c(-c2ccccc2C)c1)c1cncn1C (centres unmarked) [Example 27, 5-((ethyl(4-nitrobenzyl)amino)(1-methyl-1H-imidazol-5-yl)methyl)-2′-methyl(1,1′-biphenyl)-2-carbonitrile dihydrochloride]",100,–
"CCN(Cc1ccc(C#N)cc1)C(c1ccc(C#N)c(-c2ccccc2C)c1)c1cncn1C (centres unmarked) [Example 28, 5-(((4-cyanobenzyl)(ethyl)amino)(1-methyl-1H-imidazol-5-yl)methyl)-2′-methyl(1,1′-biphenyl)-2-carbonitrile dihydrochloride]",100,–
"CN(Cc1ccc(C#N)cc1)C(c1ccc(C#N)c(-c2cccc3ccccc23)c1)c1cncn1C (centres unmarked) [Example 29, 4-(((4-cyanobenzyl)(methyl)amino)(1-methyl-1H-imidazol-5-yl)methyl)-2-(1-naphthyl)benzonitrile]",100,–
"CCCCN(Cc1ccc(C#N)cc1)C(c1ccc(C#N)c(-c2cccc3ccccc23)c1)c1cncn1C (centres unmarked) [Example 30, 4-((butyl(4-cyanobenzyl)amino)(1-methyl-1H-imidazol-5-yl)methyl)-2-(1-naphthyl)benzonitrile dihydrochloride]",100,–
"Cn1cncc1C(NCCc1ccccc1)c1ccc(C#N)c(-c2cccc3ccccc23)c1 (centres unmarked) [Example 31, 4-((1-methyl-1H-imidazol-5-yl)(phenethylamino)methyl)-2-(1-naphthyl)benzonitrile]",100,–
"Cc1ccccc1-c1cc(CN(Cc2ccccc2)Cc2cncn2C)ccc1C#N [Example 32, 5-((benzyl((1-methyl-1H-imidazol-5-yl)methyl)amino)methyl)-2′-methyl(1,1′-biphenyl)-2-carbonitrile dihydrochloride]",93,–
"Cn1cncc1C(NCc1ccc(C#N)c(Br)c1)c1ccc(C#N)c(-c2cccc3ccccc23)c1 (centres unmarked) [Example 33, 4-(((3-bromo-4-cyanobenzyl)amino)(1-methyl-1H-imidazol-5-yl)methyl)-2-(1-naphthyl)benzonitrile dihydrochloride]",100,–
"Cn1cncc1CN(Cc1ccc(C#N)cc1)Cc1ccc(C#N)c(-c2cccc3ccccc23)c1 [Example 34, 4-(((4-cyanobenzyl)((1-methyl-1H-imidazol-5-yl)methyl)amino)methyl)-2-(1-naphthyl)benzonitrile]",100,–
"Cn1cncc1C(NCc1ccc(C#N)c(Cl)c1)c1ccc(C#N)c(-c2cccc3ccccc23)c1 (centres unmarked) [Example 35, 4-(((3-chloro4-cyanobenzyl)amino)(1-methyl-1H-imidazol-5-yl)methyl)-2-(1-naphthyl)benzonitrile dihydrochloride]",100,–
"CC(NC(c1ccc(C#N)c(-c2cccc3ccccc23)c1)c1cncn1C)c1ccc(C#N)cc1 (centres unmarked) [Example 36, 4-(((1-(4-cyanophenyl)ethyl)amino)(1-methyl-1H-imidazol-5-yl)methyl)-2-(1-naphthyl)benzonitrile dihydrochloride]",100,–
"Cn1cncc1C(NCc1ccc(C#N)c(I)c1)c1ccc(C#N)c(-c2cccc3ccccc23)c1 (centres unmarked) [Example 37, 4-(((4-cyano-3-iodobenzyl)amino)(1-methyl-1H-imidazol-5-yl)methyl)-2-(1-naphthyl)benzonitrile dihydrochloride]",100,–
"COC(=O)c1ccc(CNC(c2ccc(C#N)c(-c3cccc4ccccc34)c2)c2cncn2C)cc1 (centres unmarked) [Example 38, methyl 4-((((4-cyano-3-(1-naphthyl)phenyl)(1-methyl-1H-imidazol-5-yl)methyl)amino)methyl)benzoate]",100,–
"Cn1cncc1C(NCc1ccc(C(=O)O)cc1)c1ccc(C#N)c(-c2cccc3ccccc23)c1 (centres unmarked) [Example 39, lithium 4-((((4-cyano-3-(1-naphthyl)phenyl)(1-methyl-1H-imidazol-5-yl)methyl)amino)methyl)benzoate]",100,–
"Cn1cncc1CN(Cc1ccc(Cl)cc1)Cc1ccc(C#N)c(-c2cccc3ccccc23)c1 [Example 40, 4-(((4-chlorobenzyl)((1-methyl-1H-imidazol-5-yl)methyl)amino)methyl)-2-(1-naphthyl)benzonitrile dihydrochloride]",100,–
"Cn1cncc1CN(Cc1ccc(OC(F)(F)F)cc1)Cc1ccc(C#N)c(-c2cccc3ccccc23)c1 [Example 41, 4-((((1-methyl-1H-imidazol-5-yl)methyl)(4-(trifluoromethoxy)benzyl)amino)methyl)-2-(1-naphthyl)benzonitrile dihydrochloride]",100,–
